# In patent US6350720B2, “Substituted phenyltriazolin(THI)ones and their use as herbicides” (Bayer Aktiengesellschaft, priority 1997, dated 2002):
compound,measurement,value
CCS(=O)(=O)N(C(C)=O)c1cc(-n2nc(C(F)(F)F)n(C)c2=O)c(F)cc1C#N,melting point,179 °C
